Experimental data reported in US20250092017A1, “2-PIPERIDYL OR 2-PYRAZOLYL SUBSTITUTED PYRIMIDINE COMPOUND SERVING AS EGFR INHIBITOR” (SUZHOU PUHE BIOPHARMA CO., LTD., priority 2022, published 2025).

Experiments:
[1] = target: T1, Ba/F3-TEL-EGFR-L858R-C797S (Homo sapiens, UniProt P00533, C797S/L858R, cells depend on it); experiment: CellTiter-Glo proliferation, Ba/F3-TEL-EGFR-L858R-C797S; format: cell-based; conditions: 72 hours, read-out: Ba/F3-TEL-EGFR-L858R-C797S IC50/nM
T1 construct: fused on or other part: N-terminal TEL (ETV6) oligomerising part fused to the EGFR intracellular/kinase part; P41212 (Transcription factor ETV6)
In short: (§1)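 Ba/F3 lines dependent on the indicated EGFR variants were treated with compounds at a final DMSO concentration of 0.1% at 37 °C, 5% CO2. Viability was read by CellTiter-Glo luminescence, and inhibition rate was normalised to DMSO-treated cells (max) and medium-only wells (min). IC50 came from inhibition curves.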

[2] = test system: BaF3 (del19/T790M1C797S) tumor cells; experiment: In vivo efficacy assay in BALB/c nude mice, subcutaneous BaF3 tumor; conditions: for TGI: based on final tumor volume
Description: In vivo efficacy assay in BALB/c nude mice. Details were as follows:
BaF3 (del19/T790M1C797S) tumor cells were cultured and inoculated into 6-8 weeks old female BALB/c nude mice (weighing about 20 g), with all mice being subcutaneously inoculated. The mice were cultured in an SPF-grade experimental environment, and all mice had free access to commercially certified standard diets. When the average tumor volume of the mice grew to about 150 mm^3, the test compound was orally administered daily. The dosage was as follows: blank group vehicle (DMSO/Solutol/H2O, 5/10/85). […] The tumor volume was measured three times a week with a two-dimensional caliper, and the animals were weighed every day. […] The volume calculation formula is: V=1/2a*b^2, where a represents the long diameter of the tumor, and b represents the short diameter of the tumor.

EGFR (L858R) = EGFR (L858R) (Homo sapiens, UniProt P00533, L858R); experiment: MSA (Mobility Shift Assay) kinase activity, EGFR-L858R; format: biochemical
In short: (§2)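 Kinase preincubated with compound 10 min at room temperature, then reaction started with ATP plus substrate in 1x kinase buffer and run at room temperature. Substrate-to-product conversion read by mobility shift; % inhibition normalised to no-enzyme and no-compound controls, IC50 from variable-slope four-parameter fit.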

EGFR (L858R/C797S) = EGFR (L858R/C797S) (Homo sapiens, UniProt P00533, C797S/L858R); experiment: MSA (Mobility Shift Assay) kinase activity, EGFR-L858R-C797S; format: biochemical
In short: as §2

[3] = target: Ba/F3-FL-EGFR-del19-T790M-C797S (Homo sapiens, UniProt P00533, DEL746-750/T790M/C797S, cells depend on it); experiment: CellTiter-Glo proliferation, Ba/F3-FL-EGFR-del19-T790M-C797S; format: cell-based; conditions: 72 hours, read-out: Ba/F3-FL-EGFR-del19-T790M-C797S IC50/nM
Description: Promega CellTiter-Glo reagent was used to detect the effects of small molecule inhibitors on the proliferation of three Ba/F3 cell lines (Ba/F3-FL-EGFR-de119, Ba/F3-FL-EGFR-de119-T790M, Ba/F3-FL-EGFR-de119-T790M-C797S).
The cell lines were cultured in an incubator at 37° C. and 5% CO2. Cells were passaged regularly and cells in the logarithmic phase were used for plating. 95 μL of cell suspension was added to each well of the cell plate, and culture medium without cells (containing 0.1% DMSO) was added to the Min control wells. Substance addition for compound detection cell plate: 5 μL of 20× compound working solution was added to the cell culture plate. 5 μL of DMSO-cell culture medium mixture was added to the Max control, with the final DMSO concentration of 0.1%. 5 μL of DMSO-cell culture medium mixture was added to the Max control. The final DMSO concentration was 0.1%.
Cell viability was detected by CellTiter-Glo luminescence assay. Data analysis:
The cell proliferation inhibition rate (Inhibition Rate) data was processed using the following formula: […]
wherein: RLUDrug represents the relative luminescence unit of the cells with the addition of drug, RLUMin represents the luminescence unit of the culture medium, and RLUMax represents the relative luminescence unit of the cells with the addition of DMSO.
The inhibition rates corresponding to different concentrations of compounds were calculated in EXCEL, and then the inhibition rate curve was plotted using GraphPad Prism software and related parameters including the maximum and minimum inhibition rates of cells and IC50 values were calculated.

[4] = test system: Ba/F3-FL-EGFR-del19-C797S; experiment: CellTiter-Glo proliferation, Ba/F3-FL-EGFR-del19-C797S; format: cell-based; conditions: 72 h, proliferation, 72 hours, CellTiter-Glo; read-out: Ba/F3-FL-EGFR-del19-C797S IC50/nM
In short: as §1

EGFR (L858R/T790M/C797S) = EGFR (L858R/T790M/C797S) (Homo sapiens, UniProt P00533, C797S/L858R/T790M); experiment: MSA (Mobility Shift Assay) kinase activity, EGFR-L858R-T790M-C797S; format: biochemical
In short: as §2

[5] = 100 mg/kg BID oral (50 mg/kg for the first 4 days, 100 mg/kg from the 5th day), after 13 days

Sequence of Ba/F3-FL-EGFR-del19-T790M-C797S (P00533 with tags, fused parts or gaps DEL746-750/T790M/C797S): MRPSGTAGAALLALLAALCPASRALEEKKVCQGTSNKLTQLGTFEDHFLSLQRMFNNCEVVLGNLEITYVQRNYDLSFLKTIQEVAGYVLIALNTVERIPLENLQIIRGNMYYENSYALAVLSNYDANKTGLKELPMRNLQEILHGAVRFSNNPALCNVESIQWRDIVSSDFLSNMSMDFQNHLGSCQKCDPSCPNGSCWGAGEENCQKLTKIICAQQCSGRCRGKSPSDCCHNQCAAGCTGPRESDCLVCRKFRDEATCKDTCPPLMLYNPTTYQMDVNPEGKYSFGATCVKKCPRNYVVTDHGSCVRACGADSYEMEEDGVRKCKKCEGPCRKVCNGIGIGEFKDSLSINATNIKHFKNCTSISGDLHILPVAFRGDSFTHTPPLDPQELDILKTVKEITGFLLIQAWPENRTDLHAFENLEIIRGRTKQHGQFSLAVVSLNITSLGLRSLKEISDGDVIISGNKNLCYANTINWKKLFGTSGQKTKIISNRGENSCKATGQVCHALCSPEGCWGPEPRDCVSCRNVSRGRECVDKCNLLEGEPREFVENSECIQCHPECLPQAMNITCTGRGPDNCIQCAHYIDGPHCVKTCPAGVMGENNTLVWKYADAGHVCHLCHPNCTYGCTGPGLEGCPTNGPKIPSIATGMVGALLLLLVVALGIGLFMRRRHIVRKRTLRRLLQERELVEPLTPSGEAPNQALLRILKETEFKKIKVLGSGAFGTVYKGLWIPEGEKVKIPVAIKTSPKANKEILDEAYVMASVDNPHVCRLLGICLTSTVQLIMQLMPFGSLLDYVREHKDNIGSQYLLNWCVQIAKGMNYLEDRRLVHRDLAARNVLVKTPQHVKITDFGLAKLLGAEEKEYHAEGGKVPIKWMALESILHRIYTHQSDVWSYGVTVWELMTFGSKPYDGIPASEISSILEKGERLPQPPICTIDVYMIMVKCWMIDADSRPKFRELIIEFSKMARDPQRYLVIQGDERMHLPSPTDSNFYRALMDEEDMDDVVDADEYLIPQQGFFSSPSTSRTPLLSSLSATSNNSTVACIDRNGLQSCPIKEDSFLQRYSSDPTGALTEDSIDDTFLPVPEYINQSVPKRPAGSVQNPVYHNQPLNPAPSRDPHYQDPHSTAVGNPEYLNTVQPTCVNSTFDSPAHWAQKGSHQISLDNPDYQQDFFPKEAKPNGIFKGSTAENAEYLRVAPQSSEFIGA
Sequence of EGFR (L858R/T790M/C797S) (P00533 25-1210 T790M/C797S/L858R): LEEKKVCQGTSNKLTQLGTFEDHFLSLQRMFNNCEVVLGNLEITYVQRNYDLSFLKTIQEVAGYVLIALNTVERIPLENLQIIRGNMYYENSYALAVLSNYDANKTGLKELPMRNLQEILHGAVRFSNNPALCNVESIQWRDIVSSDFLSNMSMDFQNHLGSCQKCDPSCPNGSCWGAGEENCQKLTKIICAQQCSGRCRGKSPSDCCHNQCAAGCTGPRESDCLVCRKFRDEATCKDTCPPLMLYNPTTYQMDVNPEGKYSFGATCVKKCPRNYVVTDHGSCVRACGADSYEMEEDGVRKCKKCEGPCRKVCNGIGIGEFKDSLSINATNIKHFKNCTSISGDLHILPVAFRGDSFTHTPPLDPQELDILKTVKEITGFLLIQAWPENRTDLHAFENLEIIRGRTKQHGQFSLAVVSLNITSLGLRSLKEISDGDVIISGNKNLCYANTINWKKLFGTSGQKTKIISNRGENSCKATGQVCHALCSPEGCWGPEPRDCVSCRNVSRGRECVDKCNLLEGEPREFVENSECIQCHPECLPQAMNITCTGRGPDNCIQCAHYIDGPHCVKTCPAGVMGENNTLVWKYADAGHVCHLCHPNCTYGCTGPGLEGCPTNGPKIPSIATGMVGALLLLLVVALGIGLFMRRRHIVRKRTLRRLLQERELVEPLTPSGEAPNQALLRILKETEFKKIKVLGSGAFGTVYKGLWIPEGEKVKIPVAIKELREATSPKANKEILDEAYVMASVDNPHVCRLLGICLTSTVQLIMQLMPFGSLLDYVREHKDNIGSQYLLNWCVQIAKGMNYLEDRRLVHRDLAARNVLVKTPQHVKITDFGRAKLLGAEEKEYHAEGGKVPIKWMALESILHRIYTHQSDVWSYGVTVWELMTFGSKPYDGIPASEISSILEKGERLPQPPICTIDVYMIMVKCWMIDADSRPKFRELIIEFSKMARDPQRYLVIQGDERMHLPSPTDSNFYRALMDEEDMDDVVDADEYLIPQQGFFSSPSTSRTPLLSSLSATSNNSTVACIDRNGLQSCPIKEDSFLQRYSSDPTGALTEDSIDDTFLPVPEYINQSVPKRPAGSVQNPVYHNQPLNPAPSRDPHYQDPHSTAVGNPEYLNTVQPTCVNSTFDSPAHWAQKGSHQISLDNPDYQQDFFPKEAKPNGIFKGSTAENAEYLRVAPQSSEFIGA
Sequence of EGFR (L858R) (P00533 25-1210 L858R): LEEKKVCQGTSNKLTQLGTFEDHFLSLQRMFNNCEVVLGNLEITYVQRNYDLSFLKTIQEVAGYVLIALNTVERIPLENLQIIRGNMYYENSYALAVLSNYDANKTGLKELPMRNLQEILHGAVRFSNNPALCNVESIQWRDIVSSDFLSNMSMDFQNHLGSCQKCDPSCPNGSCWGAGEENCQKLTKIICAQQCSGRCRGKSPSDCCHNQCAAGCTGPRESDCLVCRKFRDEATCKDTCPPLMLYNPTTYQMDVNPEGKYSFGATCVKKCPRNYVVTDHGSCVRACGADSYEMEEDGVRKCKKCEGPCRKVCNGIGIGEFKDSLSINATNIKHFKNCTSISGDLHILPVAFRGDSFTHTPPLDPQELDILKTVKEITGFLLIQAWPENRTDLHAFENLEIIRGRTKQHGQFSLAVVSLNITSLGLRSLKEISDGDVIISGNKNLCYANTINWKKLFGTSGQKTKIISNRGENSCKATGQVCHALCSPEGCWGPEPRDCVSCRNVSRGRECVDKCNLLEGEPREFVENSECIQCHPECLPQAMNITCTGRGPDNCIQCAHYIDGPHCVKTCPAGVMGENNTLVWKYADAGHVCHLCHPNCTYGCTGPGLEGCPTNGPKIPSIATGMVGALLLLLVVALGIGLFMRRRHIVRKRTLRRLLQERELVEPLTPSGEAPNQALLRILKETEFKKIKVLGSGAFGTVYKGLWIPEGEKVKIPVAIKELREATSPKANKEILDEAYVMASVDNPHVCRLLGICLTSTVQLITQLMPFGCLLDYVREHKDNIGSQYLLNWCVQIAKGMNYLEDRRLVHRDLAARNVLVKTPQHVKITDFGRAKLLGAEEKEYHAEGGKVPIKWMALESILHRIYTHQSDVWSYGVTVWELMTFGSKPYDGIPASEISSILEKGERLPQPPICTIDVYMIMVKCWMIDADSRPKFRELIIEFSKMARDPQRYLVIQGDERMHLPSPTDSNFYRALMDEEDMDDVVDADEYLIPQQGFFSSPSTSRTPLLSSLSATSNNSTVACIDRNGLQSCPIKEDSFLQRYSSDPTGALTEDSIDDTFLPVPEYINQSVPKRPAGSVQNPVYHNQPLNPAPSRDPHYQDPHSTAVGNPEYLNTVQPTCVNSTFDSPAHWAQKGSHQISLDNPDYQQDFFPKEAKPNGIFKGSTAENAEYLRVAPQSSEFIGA
Sequence of EGFR (L858R/C797S) (P00533 25-1210 C797S/L858R): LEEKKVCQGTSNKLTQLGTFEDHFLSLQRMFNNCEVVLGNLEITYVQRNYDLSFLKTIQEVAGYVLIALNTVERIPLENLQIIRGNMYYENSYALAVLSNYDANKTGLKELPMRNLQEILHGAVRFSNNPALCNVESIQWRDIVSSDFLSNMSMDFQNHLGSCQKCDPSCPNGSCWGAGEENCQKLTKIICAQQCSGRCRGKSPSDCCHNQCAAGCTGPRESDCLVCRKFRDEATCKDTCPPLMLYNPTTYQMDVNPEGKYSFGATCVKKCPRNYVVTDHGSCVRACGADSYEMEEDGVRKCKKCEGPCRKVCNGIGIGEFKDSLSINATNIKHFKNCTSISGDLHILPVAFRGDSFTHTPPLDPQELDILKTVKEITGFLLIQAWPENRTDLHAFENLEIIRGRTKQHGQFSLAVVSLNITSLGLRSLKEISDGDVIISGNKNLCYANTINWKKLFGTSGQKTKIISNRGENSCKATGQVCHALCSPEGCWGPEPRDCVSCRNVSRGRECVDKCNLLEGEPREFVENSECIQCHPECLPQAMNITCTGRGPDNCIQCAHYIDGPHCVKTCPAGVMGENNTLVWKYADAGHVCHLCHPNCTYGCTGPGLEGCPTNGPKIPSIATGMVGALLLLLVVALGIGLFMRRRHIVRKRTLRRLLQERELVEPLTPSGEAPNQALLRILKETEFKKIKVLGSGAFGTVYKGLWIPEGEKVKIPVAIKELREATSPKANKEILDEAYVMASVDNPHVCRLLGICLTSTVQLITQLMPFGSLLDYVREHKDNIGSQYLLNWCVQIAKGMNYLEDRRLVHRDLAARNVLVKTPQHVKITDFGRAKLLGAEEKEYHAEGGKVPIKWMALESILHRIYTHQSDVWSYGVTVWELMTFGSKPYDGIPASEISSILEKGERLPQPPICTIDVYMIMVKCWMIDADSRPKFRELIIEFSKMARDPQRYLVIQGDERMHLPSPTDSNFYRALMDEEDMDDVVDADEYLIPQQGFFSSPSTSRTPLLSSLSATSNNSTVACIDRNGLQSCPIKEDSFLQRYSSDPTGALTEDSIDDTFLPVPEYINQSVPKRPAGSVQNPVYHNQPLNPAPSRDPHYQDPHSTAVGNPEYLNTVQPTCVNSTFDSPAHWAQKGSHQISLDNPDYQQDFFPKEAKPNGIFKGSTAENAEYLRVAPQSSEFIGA

SMILES | GI50 [1] | Tumor volume (mm^3) ([2]; 100 mg/kg, BID, oral, after 13 consecutive days of administration) | TGI ([2]; 100 mg/kg, BID, oral, after 13 consecutive days) | IC50 (EGFR (L858R)) | IC50 (EGFR (L858R/C797S)) | GI50 [3] | IC50 [4] | IC50 (EGFR (L858R/T790M/C797S)) | Tumor volume (mm^3) [2, 5] | TGI [2, 5]
CC(C)c1ccc(N2CC(N(C)S(C)(=O)=O)C2)c2cnc(Nc3ccnc(N4CC[C@@H](O)[C@@H](F)C4)n3)cc12 [Compound P39a] | 14 nM | 945 mm^3 | 79% | 1.1 nM | 2 nM | 8.4 nM | 52 nM | 0.05 nM |  | 
CC(C)c1ccc(N2C[C@H](CS(C)(=O)=O)[C@H]2C)c2cnc(Nc3ccnc(-c4cnn(S(=O)(=O)C5CC5)c4)n3)cc12 [Compound H12] | 5.8 nM |  |  | 0.51 nM | 0.6 nM | 7.8 nM | 4.3 nM | 0.43 nM | 1341 mm^3 | 68%
